Reference: the NIST ThermoML archive (doi:10.1016/j.jct.2017.11.011)
Numbers after ± are expanded uncertainties.

How the values were obtained:
[1] = 101.33 kPa, Liquid, Vibrating tube method
[2] = relative permittivity at various frequencies (dimensionless); settings: 100 kPa, Liquid, Frequency=1 MHz, Parallel plate capacitor
[3] = relative permittivity at various frequencies (dimensionless); xn = mol fraction of the nth substance listed; settings: 100 kPa, Liquid, Frequency=1 MHz, Parallel plate capacitor

Nc1ccccc1 [aniline]
mass density ([1]; 293.15 K): 1021.79 ± 2.5 kg/m3
mass density ([1]; 298.1 K): 1017.52 ± 2.4 kg/m3
mass density ([1]; 303.15 K): 1013.19 ± 2.4 kg/m3
relative permittivity ([2]; 293.15 K): 7.117 ± 0.47
relative permittivity ([2]; 298.15 K): 6.984 ± 0.47
relative permittivity ([2]; 303.15 K): 6.856 ± 0.47

Nc1ccccc1 [aniline] + CN(C)C=O
relative permittivity ([3]; 293.15 K, x2 = 0): 7.117 ± 0.47
relative permittivity ([3]; 293.15 K, x2 = 0.0533): 8.91 ± 0.53
relative permittivity ([3]; 293.15 K, x2 = 0.1046): 10.653 ± 0.57
relative permittivity ([3]; 293.15 K, x2 = 0.1562): 12.414 ± 0.61
relative permittivity ([3]; 293.15 K, x2 = 0.2033): 14.004 ± 0.65
relative permittivity ([3]; 293.15 K, x2 = 0.3015): 17.269 ± 0.71
relative permittivity ([3]; 293.15 K, x2 = 0.4071): 20.625 ± 0.77
relative permittivity ([3]; 293.15 K, x2 = 0.5013): 23.428 ± 0.82
relative permittivity ([3]; 293.15 K, x2 = 0.5999): 26.184 ± 0.87
relative permittivity ([3]; 293.15 K, x2 = 0.6989): 28.955 ± 0.91
relative permittivity ([3]; 293.15 K, x2 = 0.7931): 31.604 ± 0.95
relative permittivity ([3]; 293.15 K, x2 = 0.8431): 33.12 ± 0.97
relative permittivity ([3]; 293.15 K, x2 = 0.8982): 34.833 ± 0.99
relative permittivity ([3]; 293.15 K, x2 = 0.9459): 36.439 ± 1
relative permittivity ([3]; 298.15 K, x2 = 0): 6.984 ± 0.47
relative permittivity ([3]; 298.15 K, x2 = 0.0533): 8.729 ± 0.52
relative permittivity ([3]; 298.15 K, x2 = 0.1046): 10.426 ± 0.56
relative permittivity ([3]; 298.15 K, x2 = 0.1562): 12.144 ± 0.6
relative permittivity ([3]; 298.15 K, x2 = 0.2033): 13.689 ± 0.64
relative permittivity ([3]; 298.15 K, x2 = 0.3015): 16.874 ± 0.7
relative permittivity ([3]; 298.15 K, x2 = 0.4071): 20.146 ± 0.77
relative permittivity ([3]; 298.15 K, x2 = 0.5013): 22.895 ± 0.81
relative permittivity ([3]; 298.15 K, x2 = 0.5999): 25.601 ± 0.86
relative permittivity ([3]; 298.15 K, x2 = 0.6989): 28.31 ± 0.9
relative permittivity ([3]; 298.15 K, x2 = 0.7931): 30.92 ± 0.94
relative permittivity ([3]; 298.15 K, x2 = 0.8431): 32.402 ± 0.96
relative permittivity ([3]; 298.15 K, x2 = 0.8982): 34.071 ± 0.98
relative permittivity ([3]; 298.15 K, x2 = 0.9459): 35.62 ± 1
relative permittivity ([3]; 303.15 K, x2 = 0): 6.856 ± 0.47
relative permittivity ([3]; 303.15 K, x2 = 0.0533): 8.557 ± 0.52
relative permittivity ([3]; 303.15 K, x2 = 0.1046): 10.2 ± 0.56
relative permittivity ([3]; 303.15 K, x2 = 0.1562): 11.876 ± 0.6
relative permittivity ([3]; 303.15 K, x2 = 0.2033): 13.383 ± 0.63
relative permittivity ([3]; 303.15 K, x2 = 0.3015): 16.485 ± 0.7
relative permittivity ([3]; 303.15 K, x2 = 0.4071): 19.678 ± 0.76
relative permittivity ([3]; 303.15 K, x2 = 0.5013): 22.371 ± 0.8
relative permittivity ([3]; 303.15 K, x2 = 0.5999): 25.026 ± 0.85
relative permittivity ([3]; 303.15 K, x2 = 0.6989): 27.687 ± 0.89
relative permittivity ([3]; 303.15 K, x2 = 0.7931): 30.246 ± 0.93
relative permittivity ([3]; 303.15 K, x2 = 0.8431): 31.69 ± 0.95
relative permittivity ([3]; 303.15 K, x2 = 0.8982): 33.315 ± 0.97
relative permittivity ([3]; 303.15 K, x2 = 0.9459): 34.821 ± 0.99

CN(C)C=O [dimethylformamide]
relative permittivity ([2]; 293.15 K): 38.334 ± 1
relative permittivity ([2]; 298.15 K): 37.44 ± 1
relative permittivity ([2]; 303.15 K): 36.58 ± 1

CN(C)C=O [dimethylformamide] + Nc1ccccc1
relative permittivity ([3]; 293.15 K, x1 = 1): 38.334 ± 1
relative permittivity ([3]; 298.15 K, x1 = 1): 37.44 ± 1
relative permittivity ([3]; 303.15 K, x1 = 1): 36.58 ± 1
